According to paper PMC10250256, “A radiohybrid theranostics ligand labeled with fluorine-18 and lutetium-177 for fibroblast activation protein-targeted imaging and radionuclide therapy” (European Journal of Nuclear Medicine and Molecular Imaging, 2023):

Tests used:
HT-1080-FAP cells [1] = test: cell uptake in HT-1080-FAP cells; format: cell-based, human
Description: (§1) The human fibrosarcoma cell lines HT-1080 and HT-1080-FAP transferred with human FAP gene were both cultured in Dulbecco modified Eagle medium supplemented with 10% fetal bovine serum (Gibco, USA) at 37℃/5% carbon dioxide. For cell uptake experiments, HT-1080-FAP cells (~ 1 × 10^5/well) or HT-1080 (~ 1 × 10^5/well) were seeded in 24-well plates for 24–48 h and incubated at 37℃ with radiolabeled compounds (74 kBq/well) in 0.5 mL of serum-free medium for indicated times. Non-specific binding was determined by co-incubating with 100 μM FAP inhibitor UAMC1110. For competitive FAP binding assays, HT-1080-FAP cells were incubated with [^177Lu]Lu-FAPI-04 (74 kBq/well) in the presence of different concentrations (10^−3–10^4 nM) of competing non-radioactive ligands. For internalization experiments, the radiotracer-incubated cells were washed twice with PBS (pH 7.4), followed by glycine–HCl (0,05 M, pH = 2.8) solution to distinguish between cell surface–bound (acid-releasable) and internalized (acid-resistant) radioligand. For efflux experiments, cells were preincubated with [^177Lu]21 or [^177Lu]Lu-FAPI-04 for 1 h and subsequently incubated at 37 °C in a medium free of radiotracer and serum for different time periods. The medium was removed and the cells were washed twice with cold PBS (pH 7.4) and subsequently lysed with 0.5 mL of NaOH (1 M). Cell lysates were collected and the radioactivity was determined using a γ-counter.

HT-1080-FAP cells [2] = test: internalization experiments in HT-1080-FAP cells; format: cell-based, human; conditions: 10 min
Description: as §1, with “The medium was removed and the cells were washed twice with cold PBS (pH 7.4) and subsequently lysed with 0.5 mL of NaOH (1 M).” left out

CC(C)(C)[Si](F)(c1ccc(C(=O)NCC(NC(=O)CCC(C(=O)O)N2CCN(CC(=O)[O-])CCN(CC(=O)[O-])CCN(CC(=O)[O-])CC2)C(=O)NCC2CCC(C(=O)NCCCOc3ccc4nccc(C(=O)NCC(=O)N5CC(F)(F)CC5C#N)c4c3)CC2)cc1)C(C)(C)C.[177Lu+3] (stereo not shown) [[^177Lu]21] was tested, and the cell uptake (HT-1080-FAP cells [1]; 1 h incubation) was 72.53% ± 3.43, the cell uptake (HT-1080-FAP cells [1]; 24 h incubation) was 45.06% ± 2.62 and the “cell uptake with competitor” value (HT-1080-FAP cells [1]; co-incubation with 100 μM FAP inhibitor UAMC1110) was “could be blocked by FAP inhibitor”. For the same compound, the internalization rate (HT-1080-FAP cells [2]) was over 80%.
